A short description of data set [1]: Particle size distribution of samidorphan L-malate. Format: physicochemical. The source says:
The particle size distribution of the samidorphan or samidorphan pharmaceutically acceptable salt (e.g., L-malate) present in a disclosed tablet (e.g., as part of a first tablet layer) may be for example, a (D10) of between about 10 μm to about 80 μm, a (D50) of between about 40 μm to about 200 μm and a (D90) of between about 100 μm to about 300 μm, more preferably a D10 of between about 25 μm and about 50 μm; the D50 of between about 60 μm and about 100 μm. In some embodiments, D90 of the samidorphan (e.g., L-malate salt) is between about 120 μm and about 175 μm. […] Particle size (diameter) may be determined by conventional techniques such as dynamic light scattering. The ‘Dx’ nomenclature means that ‘x’ percent of the particles have a number average diameter (‘D’) less than or equal to the reported value when measured by static or dynamic light scattering techniques known to those skilled in the art. (e.g. D10=175 μm, means that 10% of particles have a number average diameter of less than or equal to 175 μm), a D50 (or Dv50) of less than 300 μm, means that 50% of the particle population has a diameter of less than or equal to 300 μm. The term “Dx” as used herein refers to a volume based size and is equivalent to the term “DvX” commonly used to characterize particle sizes. Since the particles of the present invention may be irregular in shape, an approximation of the particle size is made on the basis of the volume-based particle size, which specifies the diameter of the sphere that has same volume as a given particle. Unless otherwise specified, all particle sizes are specified in terms of volume-based measurements and are measured by laser light scattering/diffraction. Particle sizes are then determined based on Mie scattering theory.
For samidorphan L-malate, a recrystallization process was implemented providing particle size control during manufacturing to intentionally target a particle size distribution similar to the size of the drug product filler excipients. Unmilled and recrystallized grades of samidorphan L-malate were characterized for particle size distribution using 3 unique lots of each. The recrystallization was targeted to produce material with less fine particles thus increasing the D10. A slight increase in the D50 and decrease in the D90 adjusted the centerpoint of the distribution and decreased the overall span of the distribution. Overall the recrystallized materials had tighter distributions and reduced lot to lot variability, indicating better control. No change in the solid state form was observed between unmilled and recrystallized samidorphan L-malate as assessed by PXRD spectral comparison.

A short description of data set [2]: Chemical compatibility of olanzapine and samidorphan L-malate, stability at 40° C./75% RH by HPLC. Format: physicochemical. The settings on record: for Percentage Total Impurities: 40° C./75 RH; for Percentage Related Compound B Impurity: 40° C./75% RH, ND: ≤LOD (0.02 wt %), LOQ: 0.05 wt %.
Protocol: Samples in 20 ml Wheaton scintillation vials were stored at 40° C./75% RH in open and closed vial configurations. Closed vials were vials closed with a urea cap and wrapped using parafilm under ambient conditions. The contents of the vials were tested at the start of the study and after 2, 6 and 12 weeks. At each time point samples were analysed by reversed phase HPLC (Waters ACQUITY UPLC H-Class System) with ACQUITY PDA Detector using a Waters ACQUITY UPLC CSH C18 Column, 3 mm×100 mm, and a gradient elution of acetate buffer pH 5.1 and 50/50 (v/v) acetonitrile/methanol.
The conditions of data set [3]: cited from earlier work.

The structures appear in SMILES notation. Some results are limits rather than exact numbers.

`NC(=O)c1ccc2c(c1O)[C@]13CCN(CC4CC4)[C@H](C2)[C@]1(O)CCC(=O)C3.O=C(O)C[C@H](O)C(=O)O` [Sample number 6]: in data set [1] (listed as 6), the “Particle size D10” value amounted to 42 μm, the “Particle size D50” value is reported as 90 μm and the “Particle size D90” value was 165 μm.

As for `NC(=O)c1ccc2c(c1O)[C@]13CCN(CC4CC4)[C@H](C2)[C@]1(O)CCC(=O)C3.O=C(O)C[C@H](O)C(=O)O` [Samidorphan L-malate, morphinan-3-carboxamide, 17-(cyclopropylmethyl)-4, 14-dihydroxy6-oxo-, (2S)-2-hydroxybutanedioate], the “Percentage Total Impurities” value was 0.00% in data set [2] (CLOSED vial, 2 WEEK); 0.00% in data set [2] (CLOSED vial, 6 WEEK); 0.00% in data set [2] (CLOSED vial, 12 WEEK); 0.00% in data set [2] (INITIAL); 0.00% in data set [2] (OPEN vial, 2 WEEK); 0.00% in data set [2] (OPEN vial, 6 WEEK). Also, in data set [2] (OPEN vial, 12 WEEK), the “Percentage Total Impurities” value stood at 0.00%. Besides, in data set [3], the “pKa (amine)” value is 8.3. In data set [3], the “pKa (phenol)” value is recorded as 10.1.

Turning to `NC(=O)c1ccc2c(c1O)[C@]13CCN(CC4CC4)[C@H](C2)[C@]1(O)CCC(=O)C3.O=C(O)C[C@H](O)C(=O)O` [Sample number 3], in data set [1] (listed as 3), the “Particle size D10” value is recorded as 6 μm, the “Particle size D50” value was 28 μm and the “Particle size D90” value is 243 μm.

Turning to `NC(=O)c1ccc2c(c1O)[C@]13CCN(CC4CC4)[C@H](C2)[C@]1(O)CCC(=O)C3.O=C(O)C[C@H](O)C(=O)O` [Sample number 4], in data set [1] (listed as 4), the “Particle size D10” value turned out to be 33 μm, the “Particle size D50” value was found to be 73 μm and the “Particle size D90” value was 130 μm.

Take `Cc1cc2c(s1)Nc1ccccc1N=C2N1CCN(C)CC1` [Olanzapine, 2-methyl-4-(4-methyl-1-piperazinyl)-10H-thieno[2,3-b][1,5]benzodiazepine]: the “Percentage Related Compound B Impurity” value in data set [2] (INITIAL) was 0.01 wt %; in data set [2] (OPEN vial, 2 WEEK), “<LOQ”. For the same molecule, the “Percentage Total Impurities” value in data set [2] (CLOSED vial, 2 WEEK) was found to be 0.00%; in data set [2] (CLOSED vial, 6 WEEK) it was 0.00%; in data set [2] (CLOSED vial, 12 WEEK), 0.00%; in data set [2] (INITIAL) it was 0.00%; in data set [2] (OPEN vial, 2 WEEK), 0.00%; in data set [2] (OPEN vial, 6 WEEK) it was 0.00%. Moreover, the “Percentage Total Impurities” value in data set [2] (OPEN vial, 12 WEEK) was 0.00%.

Take `NC(=O)c1ccc2c(c1O)[C@]13CCN(CC4CC4)[C@H](C2)[C@]1(O)CCC(=O)C3.O=C(O)C[C@H](O)C(=O)O` [Sample number 5]: in data set [1] (listed as 5), the “Particle size D10” value came out at 46 μm, the “Particle size D50” value is listed as 90 μm and the “Particle size D90” value is on record as 160 μm.

As to `NC(=O)c1ccc2c(c1O)[C@]13CCN(CC4CC4)[C@H](C2)[C@]1(O)CCC(=O)C3.O=C(O)C[C@H](O)C(=O)O` [Sample number 2], in data set [1] (listed as 2), the “Particle size D10” value was 10 μm, the “Particle size D50” value is given as 36 μm and the “Particle size D90” value is on record as 231 μm.

For the molecule `NC(=O)c1ccc2c(c1O)[C@]13CCN(CC4CC4)[C@H](C2)[C@]1(O)CCC(=O)C3.O=C(O)C[C@H](O)C(=O)O` [Sample number 1], in data set [1] (listed as 1), the “Particle size D10” value is 8 μm, the “Particle size D50” value was determined as 37 μm and the “Particle size D90” value is reported as 223 μm.

These data come from patent publication US12390474B2, “Immediate release multilayer tablet” (priority 2020, dated 2025).
